Experimental findings from the NIST ThermoML archive (doi:10.1016/j.jct.2006.11.003) are described below.

The nature of series [1]: xn = mol fraction of the nth substance listed. Conditions: 101 kPa, Liquid, x2 = 0.
Series [2] can be described thus: refractive index (Na D-line) (dimensionless). Conditions: 298.15 K; 101.33 kPa; Liquid; Standard Abbe refractometry.
For series [3] the following is noted: 101 kPa, Liquid.

Molecules are shown by their SMILES. Numbers after ± are expanded uncertainties.

As usually defined, the mass density is mass per unit of volume. With `CN1CCCC1=O` [N-methylpyrrolidone] + Cc1cccc(C)c1, the mass density came out at 1032.66 ± 0.48 kg/m3 in series [1] (293.15 K); 1023.42 ± 0.44 kg/m3 in series [1] (303.15 K); 1014.27 ± 0.4 kg/m3 in series [1] (313.15 K); 1005.62 ± 0.37 kg/m3 in series [1] (323.15 K); 996.28 ± 0.36 kg/m3 in series [1] (333.15 K); 987.39 ± 0.4 kg/m3 in series [1] (343.15 K). Moreover, the mass density in series [1] (353.15 K) turned out to be 978.62 ± 0.43 kg/m3.
The refractive index is the speed of light in vacuum divided by its phase velocity in the sample. `Cc1ccccc1C` [1,2-dimethylbenzene]: the refractive index in series [2] amounted to 1.5057 ± 0.0007. In addition, the mass density in series [3] (293.15 K) amounted to 879.84 ± 0.64 kg/m3; in series [3] (298.15 K), 875.73 ± 0.65 kg/m3; in series [3] (303.15 K), 871.48 ± 0.66 kg/m3; in series [3] (313.15 K), 863.03 ± 0.69 kg/m3; in series [3] (323.15 K), 854.51 ± 0.72 kg/m3; in series [3] (333.15 K) it was 845.91 ± 0.74 kg/m3. The mass density in series [3] (343.15 K) came to 837.23 ± 0.77 kg/m3; in series [3] (353.15 K) it was 828.47 ± 0.8 kg/m3.
Take `CN1CCCC1=O` [N-methylpyrrolidone] + Cc1ccccc1C: the mass density in series [1] (293.15 K) came out at 1032.66 ± 0.48 kg/m3; in series [1] (303.15 K), 1023.42 ± 0.44 kg/m3; in series [1] (313.15 K), 1014.27 ± 0.4 kg/m3; in series [1] (323.15 K), 1005.62 ± 0.37 kg/m3; in series [1] (333.15 K), 996.28 ± 0.36 kg/m3; in series [1] (343.15 K), 987.39 ± 0.4 kg/m3. In addition, the mass density in series [1] (353.15 K) is on record as 978.62 ± 0.43 kg/m3.
On to `Cc1cccc(C)c1` [1,3-dimethylbenzene], for which the refractive index in series [2] amounted to 1.4973 ± 0.0008. Moreover, the mass density was 864.31 ± 1.3 kg/m3 in series [3] (293.15 K); 859.83 ± 1.3 kg/m3 in series [3] (298.15 K); 855.64 ± 1.3 kg/m3 in series [3] (303.15 K); 846.9 ± 1.3 kg/m3 in series [3] (313.15 K); 838.09 ± 1.3 kg/m3 in series [3] (323.15 K); 829.22 ± 1.3 kg/m3 in series [3] (333.15 K). Further, the values for the mass density in series [3] (343.15 K) and in series [3] (353.15 K) were 820.29 ± 1.4 kg/m3 and 811.29 ± 1.4 kg/m3, respectively.
For the compound `CN1CCCC1=O` [N-methylpyrrolidone], the refractive index in series [2] turned out to be 1.4677 ± 0.0007. Also, the mass density in series [3] (293.15 K) was determined as 1032.66 ± 0.48 kg/m3; in series [3] (298.15 K) it was 1028.25 ± 0.46 kg/m3; in series [3] (303.15 K) it was 1023.42 ± 0.44 kg/m3; in series [3] (313.15 K), 1014.27 ± 0.4 kg/m3; in series [3] (323.15 K) it was 1005.62 ± 0.37 kg/m3; in series [3] (333.15 K), 996.28 ± 0.36 kg/m3. Also, the mass density in series [3] (343.15 K) is 987.39 ± 0.4 kg/m3; in series [3] (353.15 K) it was 978.62 ± 0.43 kg/m3.
Consider `Cc1ccc(C)cc1` [1,4-dimethylbenzene], for which the refractive index in series [2] was determined as 1.4958 ± 0.0008. The mass density was 860.95 ± 0.83 kg/m3 in series [3] (293.15 K); 856.58 ± 0.84 kg/m3 in series [3] (298.15 K); 852.3 ± 0.85 kg/m3 in series [3] (303.15 K); 834.76 ± 0.9 kg/m3 in series [3] (323.15 K); 825.86 ± 1.2 kg/m3 in series [3] (333.15 K); 816.87 ± 0.95 kg/m3 in series [3] (343.15 K). The mass density in series [3] (353.15 K) is 807.81 ± 0.98 kg/m3.
On to `CN1CCCC1=O` [N-methylpyrrolidone] + Cc1ccc(C)cc1, for which the mass density came out at 1032.66 ± 0.48 kg/m3 in series [1] (293.15 K); 1023.42 ± 0.44 kg/m3 in series [1] (303.15 K); 1014.27 ± 0.4 kg/m3 in series [1] (313.15 K); 1005.62 ± 0.37 kg/m3 in series [1] (323.15 K); 996.28 ± 0.36 kg/m3 in series [1] (333.15 K); 987.39 ± 0.4 kg/m3 in series [1] (343.15 K). Besides, in series [1] (353.15 K), the mass density is given as 978.62 ± 0.43 kg/m3.
